Experimental data from the supplement of paper PMC10307832.

Experiments:
Assay in all cases: relative viability (nuclei count vs DMSO), 5 days (fraction); higher = more cells survive
XMD14-99 + Olaparib = compound: CN1CCN(CC1)C2=CC(=C(C=C2)NC3=NC(=C(S3)C(=O)C4=C(C=CC=C4Cl)Cl)N)OC [XMD14-99] + O=C(c1cc(Cc2n[nH]c(=O)c3ccccc23)ccc1F)N1CCN(C(=O)C2CC2)CC1 [Olaparib] (partner 8 µM)
How it was run: (§1)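 Each reported value is a median over duplicate plates. It expresses relative viability: treated-well nuclei count divided by vehicle-well nuclei count. Lung cancer cell lines in 1536-well plates were dosed by pin tool a day after seeding, alone with one drug or with a fixed anchor-drug dose plus five library-drug doses (not always all listed) in √10 steps, and nuclei were counted after 5 days.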

AZD1208 + Trametinib = compound: N[C@@H]1CCCN(c2c(/C=C3\SC(=O)NC3=O)cccc2-c2ccccc2)C1 [AZD1208] + CC(=O)Nc1cccc(-n2c(=O)n(C3CC3)c(=O)c3c(Nc4ccc(I)cc4F)n(C)c(=O)c(C)c32)c1 [Trametinib] (partner 0.02 µM)
How it was run: as §1

AZD1208 + OSI-027 = compound: N[C@@H]1CCCN(c2c(/C=C3\SC(=O)NC3=O)cccc2-c2ccccc2)C1 [AZD1208] + COc1cccc2cc(-c3nc([C@H]4CC[C@H](C(=O)O)CC4)n4ncnc(N)c34)[nH]c12 [OSI-027] (partner 0.5 µM)
How it was run: as §1

AZD1208 + Crizotinib = compound: N[C@@H]1CCCN(c2c(/C=C3\SC(=O)NC3=O)cccc2-c2ccccc2)C1 [AZD1208] + C[C@@H](Oc1cc(-c2cnn(C3CCNCC3)c2)cnc1N)c1c(Cl)ccc(F)c1Cl [Crizotinib] (partner 1 µM)
How it was run: as §1

| Cell Line | relative viability (XMD14-99 + Olaparib; first compound 0.08 µM) | relative viability (XMD14-99 + Olaparib; first compound 0.8 µM) | relative viability (XMD14-99 + Olaparib; first compound 2.53 µM) | relative viability (XMD14-99 + Olaparib; first compound 8 µM) | relative viability (AZD1208 + Trametinib; first compound 0.08 µM) | relative viability (AZD1208 + Trametinib; first compound 0.253 µM) | relative viability (AZD1208 + Trametinib; first compound 0.8 µM) | relative viability (AZD1208 + Trametinib; first compound 2.53 µM) | relative viability (AZD1208 + Trametinib; first compound 8 µM) | relative viability (AZD1208 + OSI-027; first compound 0.08 µM) | relative viability (AZD1208 + OSI-027; first compound 0.253 µM) | relative viability (AZD1208 + OSI-027; first compound 0.8 µM) | relative viability (AZD1208 + OSI-027; first compound 2.53 µM) | relative viability (AZD1208 + OSI-027; first compound 8 µM) | relative viability (AZD1208 + Crizotinib; first compound 0.08 µM) | relative viability (AZD1208 + Crizotinib; first compound 0.253 µM) | relative viability (AZD1208 + Crizotinib; first compound 2.53 µM) | relative viability (AZD1208 + Crizotinib; first compound 8 µM) | relative viability (AZD1208 + Crizotinib; first compound 0.8 µM) |
| --- | --- | --- | --- | --- | --- | --- | --- | --- | --- | --- | --- | --- | --- | --- | --- | --- | --- | --- | --- |
| NCI-H661 | 0.684 | 0.663 | 0.619 | 0.485 | 0.549 | 0.565 | 0.544 | 0.543 | 0.514 | 0.613 | 0.714 | 0.648 | 0.657 | 0.663 | 1.02 | 1 | 1 | 1.08 | – |
| NCI-H1650 | 0.834 | 0.597 | 0.639 | 0.734 | 0.575 | 0.667 | 0.536 | 0.517 | 0.537 | 0.592 | 0.516 | 0.568 | 0.434 | 0.473 | 0.954 | 0.972 | 0.921 | 0.71 | 1.04 |
| NCI-H2087 | 0.506 | 0.476 | 0.515 | 0.382 | 0.219 | 0.167 | 0.159 | 0.227 | 0.193 | 0.518 | 0.508 | 0.427 | 0.513 | 0.445 | 1.06 | 1.13 | 0.993 | 0.979 | 0.812 |
| LC-2-ad | 0.687 | 0.707 | 0.628 | 0.498 | 0.92 | 0.917 | 0.664 | 0.933 | 0.935 | 0.788 | 0.776 | 0.624 | 0.707 | 0.651 | 0.488 | 0.401 | 0.383 | 0.392 | 0.421 |
| COR-L 105 | 0.657 | 0.699 | 0.682 | 0.621 | 0.435 | 0.366 | 0.408 | 0.625 | 0.378 | 0.613 | 0.745 | 0.542 | – | 0.736 | 0.806 | 0.766 | 0.881 | 0.68 | 0.717 |
| NCI-H1355 | 0.72 | 0.708 | 0.715 | 0.493 | 0.429 | 0.391 | 0.416 | 0.401 | 0.366 | 0.389 | 0.31 | 0.315 | 0.285 | 0.273 | 0.974 | 1.09 | 1.06 | 0.916 | 0.997 |
| H3255 | 0.577 | 0.507 | 0.491 | 0.343 | 0.537 | 0.616 | 0.636 | 0.624 | 0.519 | 0.506 | 0.54 | 0.429 | 0.491 | 0.543 | 0.897 | 0.854 | 0.828 | 0.774 | 0.916 |
| NCI-H2009 | 0.662 | 0.835 | 0.656 | 0.538 | 0.264 | 0.249 | 0.256 | 0.224 | 0.207 | 0.63 | 0.645 | 0.537 | 0.569 | 0.553 | 1.07 | 1.14 | 1.06 | 0.979 | 0.972 |
| NCI-H1734 | 0.605 | 0.581 | 0.595 | 0.385 | 0.659 | 0.583 | 0.535 | 0.525 | 0.434 | 0.51 | 0.534 | 0.495 | 0.468 | 0.342 | 0.683 | 0.649 | 0.528 | 0.464 | 0.504 |
